In data set [1] the test system is HLA-A*24:02 positive lymphocytes isolated from healthy donors. The data set can be described thus: Induction of PEPP2 peptide-specific CTLs from PBMCs of healthy donors. It is filed as cell-based, human. The following applies: HLA-A*24:02 positive healthy donor lymphocytes stimulated with peptide-pulsed DC and PHA blasts; IFN-γ ELISpot. As for the experimental part: CTLs were generated by in vitro stimulation with peptide-pulsed autologous dendritic cells and phytohemagglutinin (PHA) blasts. Briefly, PBMNCs were isolated from whole blood of HLA-A*24:02-positive HD by Ficoll density gradient centrifugation. Dendritic cells (DC) were generated by isolating CD14^+ cells using a MACS separation system (Miltenyi Biotec, Bergisch Gladbach, Germany). The CD14^+ cells were cultured in AIM-V medium supplemented with 10% human serum, 100 ng/mL of IL-4 (R&D Systems) and 100 ng/mL of GM-CSF (R&D Systems) for 5 days, then 20 ng/mL of TNF-α (R&D Systems) was added to generate DC. PHA blasts were derived from CD14^- cells by culturing in AIM-V medium supplemented with 10% human serum, 100 units of IL-2 and 1μ g/mL of PHA for 2 days. The DC or PHA blasts were pulsed with 50μg/L of peptide at room temperature for 3 hours and then irradiated (mediXtec, Chiba, Japan). On day 0, CD14^- cells were stimulated with irradiated peptide-pulsed DC in AIM-V medium with 10% human serum supplemented with 10 ng/mL of IL-7 (R&D Systems), then 50 ng/mL of IL-2 was added every 2 to 3 days. The cells were stimulated weekly with irradiated peptide-pulsed autologous PHA blasts, then CD3^+CD8^+ cells were purified with immunomagnetic beads (Miltenyi Biotec).
IFN-γ secretion of CTLs in response to target cells was detected using ELISpot assay. Briefly, effector cells were incubated with target cells in plates coated with anti-IFNγ antibody (1-D1K; Mabtech Inc., Cincinnati, OH). After incubation for 20 hours, biotinylated antibody specific for IFN γ (7-B6-1; Mabtech) was added for 2 hours at room temperature and then streptavidin-alkaline phosphatase (Mabtech) was added for 1 hour. To develop spots, nitroblue tetrazolium and 5-bromo-4-chloro-3-indolyl phosphate (Biorad) were added and the color development was stopped by rinsing with distilled water. The resulting spots were counted using a CTL-ImmunoSpot® analyzer (Cellular Technology Ltd., Shaker Heights, OH)

Data set [2] deals with HLA-A24. The data set can be described thus: Peptide stability assay on CIR-A24 cells (brefeldin A). The following applies: 50 μg/mL peptide + 5 μg/mL β2-microglobulin, 24 hours, then 50 μg/mL brefeldin A for 4 hours, FITC anti-HLA-A24 staining, MFI with peptide / MFI without peptide, average of the two assays. It is filed as binding. As for the experimental part: (§1) We assessed the binding ability of candidate peptides to HLA-A24 as described previously. CIR-A24 cells were incubated with 50 μg/mL peptides and 5μg/ mL of β2-microglobulin in serum-free media for 24 hours. After washing with PBS, the expression of HLA-A24 was measured by staining the cells with FITC-conjugated anti-HLA-A24 antibody (Mitsubishi-Kagaku, Tokyo, Japan). We also checked the stability of candidate peptides bound to the HLA-A24 molecule. CIR-A24 cells were incubated with 50 μg/mL peptides and 5 μg/mL of β2-microglobulin in serum-free media for 24 hours, followed by addition of 50 μg/ mL of brefeldin A (Sigma-Aldrich) for 4 hours. The expression of HLA-A24 was detected by staining the cells with FITC-conjugated anti-HLA-A24 antibody (Mitsubishi). MFI (mean fluorescence intensity) ratio was calculated as follows; MFI of CIR-A24 pulsed with each candidate peptide / MFI of CIR-A24 without peptide.

The subject of data set [3] is HLA-A24. The data set can be described thus: Peptide binding assay on CIR-A24 cells. The following applies: 50 μg/mL peptide + 5 μg/mL β2-microglobulin, serum-free media, 24 hours, FITC anti-HLA-A24 staining, MFI with peptide / MFI without peptide, average of the two assays. The method, then:
as §1

The subject of a further data set is PBMNCs from HD. The data set can be described thus: PEPP2 expression after demethylating agent, healthy donor PBMNCs. It is filed as cell-based, human. The following applies: PBMCs from healthy donor, 200 nM for 72 hours.
Data set [4] relates to PL21 cells. Particulars: flow cytometry. In general terms: In flow cytometry, cells or beads pass a laser one at a time.
The test system of data set [5] is PBMNCs from HLA-A*24:02-positive healthy donor. Particulars: PBMNCs pretreated for 72 hours, 51Cr release. The method, then:
(§2) PL21 and HL60 cells and PBMNCs from HD were cultured in AIM-V medium (Life Technologies) supplemented with 10% human serum (Lonza, Walkersville, MD) in 6-well culture plates and 200 nM of 5-aza-2′-deoxycytidine (Sigma-Aldrich) was added every 24 hours for 72 hours.
(§3) The cytotoxic activity of the CTLs was measured using a standard ^51Cr release assay. Target cells were labeled with 50 μCi of ^51Cr (PerkinElmer Inc., Waltham, MA) for 60 min at 37°C. CIR-A24 cells were then incubated with 5 μg/mL of peptide for 1 hour. For the blocking assay, KMS21 cells were treated with mouse anti-HLA class I antibody (w6/32; eBioscience, San Diego, CA) or mouse IgG isotype antibody (eBioscience). The target cells were mixed with effector cells. After 4 hours, supernatants were transferred to LumaPlates (PerkinElmer) and allowed to air dry in a hood overnight. Plates were sealed and counted in MicroBeta® Trilux instrument (PerkinElmer). Percent specific lysis for ^51Cr release was calculated as [(experimental ^51Cr release—spontaneous ^51Cr release) / (maximum ^51Cr release—spontaneous ^51Cr release)] x 100.

The subject of a further data set is leukemia cells. The data set can be described thus: Viability of leukemia cells after drug treatment. The following applies: data not shown.
The next data set has as its system HL60 and PL21 cells. The data set can be described thus: PEPP2 expression after demethylating agent, leukemia cell lines (RT-PCR, quantitative PCR, immunohistochemistry). In kind it is cell-based.
Data set [6] concerns PL21 cells. The data set can be described thus: 51Cr release cytotoxicity of PEPP2-specific CTLs against drug-pretreated PL21 cells. The following applies: PL21 pretreated for 72 hours. As for the experimental part:
as §2, §3

A further data set concerns CIR-A24 cells. The data set can be described thus: 51Cr release cytotoxicity assay of PEPP2-specific CTLs against peptide-pulsed cells. In kind it is cell-based. An excerpt:
The target cells were mixed with effector cells.

Regarding AFTPIQLQEL [PEPP2^140-149], the “Induction of PEPP2-specific CTL” value in data set [1] was “could not induce PEPP2-specific CTL”. In the data set with HLA-A24 [2], the “Stability MFI ratio” value amounted to 0.851. Moreover, the “Binding MFI ratio” value in the data set on HLA-A24 [3] turned out to be 1.363.
Turning to FTPLQLQEL [PEPP2^141-149], the “Stability MFI ratio” value in the data set with HLA-A24 [2] was determined as 0.687. In the data set with HLA-A24 [3], the “Binding MFI ratio” value worked out at 0.860.
Turning to QGTAAGEKL [PEPP2^52-60], the “Stability MFI ratio” value in the data set with HLA-A24 [2] was determined as 0.938. The “Binding MFI ratio” value in the data set on HLA-A24 [3] was 0.820.
For FVIVPSFTF [PEPP2^277-285], in that order: 0.928 and 1.181.
For VHAFTPLQL [PEPP2^138-146], in that order: 0.748 and 0.992.
On to “KWRRHQRAL [PEPP2^188-196, PEPP2-derived candidate peptide …]”, for which the “Stability MFI ratio” value in the data set with HLA-A24 [2] was 0.714. In addition, in the data set on HLA-A24 [3], the “Binding MFI ratio” value was 0.772.
For QCSQYMTSL [PEPP2^6-14], in that order: 0.614 and 0.724.
For RALMARNML [PEPP2^194-202], in that order: 0.599 and 0.954.
The like results for RPQGAVGGL [PEPP2^120-128] were, in that order, 0.754 and 0.746.
With CSQYMTSSL [PEPP2^7-15], the “Stability MFI ratio” value in the data set with HLA-A24 [2] was found to be 1.041. Further, the “Binding MFI ratio” value in the data set with HLA-A24 [3] was 1.103.
The like results for TYGPVFMCL [EBV, reference compound] were, in that order, 1.320 and 1.204.
Take `Nc1ncn([C@H]2C[C@H](O)[C@@H](CO)O2)c(=O)n1` [5-aza-2′-deoxycytidine]: the “PEPP2 gene and protein expression after treatment” value in the data set on PBMNCs from HD is reported as “did not change”. The “HLA-class I expression after treatment” value in the data set on PL21 cells [4] was “up-regulated”. In the data set on PL21 cells [4] (confirmed by quantitative PCR), the “PD-L1 expression level after treatment” value is reported as “slightly up-regulated”. Further, the “Recognition of treated normal PBMNCs by PEPP2-specific CTLs” value in [5] was “didn’t recognize”. Further, the “Viability of leukemia cells after treatment with the drug” value in the data set on leukemia cells is given as “more than 90%”. For the same compound, in the data set with HL60 and PL21 cells (HL60 and PL21, 200 nM for 72 hours, RT-PCR / quantitative PCR), the “PEPP2 gene expression after treatment” value is “significantly up-regulated”. The “PEPP2 protein expression after treatment” value with HL60 and PL21 cells (treated vs untreated cells, 200 nM for 72 hours, immunohistochemistry) is reported as “increased”. The “Cytotoxicity of PEPP2-specific CTLs against treated cells compared with non-treated cells” value with PL21 cells [6] is “enhanced cytotoxicity”.
For LQDMNAMVL [PEPP2^25-33], the “Stability MFI ratio” value with HLA-A24 [2] worked out at 0.761. The “Binding MFI ratio” value in the data set with HLA-A24 [3] turned out to be 0.768.
The like results for DMNAMVSL [PEPP2^27-35] were, in that order, 0.831 and 0.936.
For SLPLPLMLL [PEPP2^253-261], the “Induction of PEPP2-specific CTL” value in data set [1] is given as “could not induce PEPP2-specific CTL”. In addition, in the data set on HLA-A24 [2], the “Stability MFI ratio” value is on record as 1.103. Further, in the data set on HLA-A24 [3], the “Binding MFI ratio” value is on record as 1.277.
Turning to QYMTSLLSPA [PEPP2^9-18], the “Stability MFI ratio” value in the data set on HLA-A24 [2] is recorded as 0.865. For the same compound, the “Binding MFI ratio” value in the data set with HLA-A24 [3] worked out at 1.354.
For ERIFQREQF [PEPP2^150-158], in that order: 0.690 and 0.747.
For GGAGVPGHL [PEPP2^81-89], in that order: 0.785 and 0.852.
The like results for DYFWDHSHS [PEPP2^231-239] were, in that order, 0.869 and 0.889.
With LQLQELERI [PEPP2^144-152], in the data set on HLA-A24 [2], the “Stability MFI ratio” value was 0.738. Moreover, the “Binding MFI ratio” value in the data set with HLA-A24 [3] was 0.695.
For QYSRPQGAV [PEPP2^117-125], in that order: 0.977 and 0.882.
The like results for MPPFPPPSL [PEPP2^246-254] were, in that order, 0.914 and 0.985.
The like results for QLQELERIF [PEPP2^145-153] were, in that order, 1.071 and 0.767.
As to EFGPFPFVI [PEPP2^271-279], the “Lysis of peptide-pulsed C1R-A24 cells by PEPP2-specific CTLs” value in the data set on CIR-A24 cells (4 hours, targets pulsed with 5 μg/mL peptide) is “could lyse C1R-A24 cells only when the target cells were pulsed”. In addition, in the data set on CIR-A24 cells (CIR-A24 pulsed with various concentrations of peptide, E/T ratio of 30), the “Dose dependence of recognition by CTLs” value was “peptide dose-dependent”. In addition, the “Induction of PEPP2-specific CTL” value in data set [1] is reported as “could induce PEPP2-specific CTL”. The “Stability MFI ratio” value in the data set on HLA-A24 [2] came out at 1.201. For the same compound, the “Binding MFI ratio” value in the data set on HLA-A24 [3] was 1.153.
For PFPPPSLPL [PEPP2^248-256], the “Stability MFI ratio” value in the data set on HLA-A24 [2] is reported as 0.926. Besides, the “Binding MFI ratio” value in the data set with HLA-A24 [3] amounted to 1.069.

For the origin of these results see paper PMC4718592, “Identification of Novel HLA-A*24:02-Restricted Epitope Derived from a Homeobox Protein Expressed in Hematological Malignancies” (PLoS ONE, 2016).
